Reference: patent US9309227B2, “N-biphenylmethylbenzimidazole modulators of PPARG” (The Scripps Research Institute, priority 2011, dated 2016)

Legend:
GST-PPARG-LBD = biological target: T1, GST-PPARG-LBD (Homo sapiens, UniProt P37231); assay: Lanthascreen PPARG competitive binding assay (Invitrogen); settings: Table 3; read-out: IC50 (nM) Lantha
T1 construct: A mixture of 5 nM GST-PPARG-LBD; purchased Invitrogen
T1 sequence (P37231 238-503 limits assumed): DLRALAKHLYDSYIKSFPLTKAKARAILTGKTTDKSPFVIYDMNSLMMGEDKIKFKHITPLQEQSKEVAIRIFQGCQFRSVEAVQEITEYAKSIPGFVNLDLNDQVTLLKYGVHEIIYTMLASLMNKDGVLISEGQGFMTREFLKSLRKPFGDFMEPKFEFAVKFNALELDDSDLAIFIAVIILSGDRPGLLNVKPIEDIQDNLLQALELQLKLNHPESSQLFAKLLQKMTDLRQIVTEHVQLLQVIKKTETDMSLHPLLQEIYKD
Experimental: Lanthascreen PPARG Competitive Binding Assay (Invitrogen)
The assay was performed according to manufacturer protocol. A mixture of 5 nM GST-PPARG-LBD, 5 nM Tb-GST-antibody, […] Pan-PPAR Green, and serial dilutions of the experimental compound, beginning at 10 μM downwards, was added to wells of black 384-well low-volume plates (Greiner) to a total volume of 18 μL. All dilutions were made in TR-FRET assay buffer C. DMSO at 2% final concentration was used as a no-ligand control. Experiment was performed in triplicate, and incubated tier 2 hours in the dark prior to assay read in Perkin Elmer ViewLux ultra HTS microplate reader. FRET signal was measured by excitation at 340 nm and emission at 520 nm for fluorescein and […] for terbium. Fold change over DMSO was calculated using GraphPad Prism Software (La Jolla, Calif.) by calculating 520 nm/490 nm ratio. Graphs were plotted as fold change of FRET signal for compound treatment over DMSO-only control.

PPARG [1] = biological target: T2, PPARG (Homo sapiens, UniProt P37231); assay: Gal 4 assay (ED50 and % act); type: cell-based; settings: for activation at 1 µM: read-out: GL 4% act 1 μM; for activation at 10 µM: read-out: GL 4% act 10 μM
T2 sequence (P37231 204-505): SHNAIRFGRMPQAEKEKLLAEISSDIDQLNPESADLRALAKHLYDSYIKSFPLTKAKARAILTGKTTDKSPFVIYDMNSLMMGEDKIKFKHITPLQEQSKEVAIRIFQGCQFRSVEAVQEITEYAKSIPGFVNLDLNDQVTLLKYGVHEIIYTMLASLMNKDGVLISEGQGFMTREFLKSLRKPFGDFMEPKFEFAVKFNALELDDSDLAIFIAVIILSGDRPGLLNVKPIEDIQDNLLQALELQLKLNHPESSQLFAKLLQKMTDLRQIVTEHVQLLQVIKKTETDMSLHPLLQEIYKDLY

PPARG [2] = biological target: T3, PPARG (UniProt P37231); assay: Cell-based transactivation assay (PPRE-luciferase reporter co-transfected with PPARG in COS-1 cells); parameters: species or system human or mouse
T3 construct: PPRE % act 1 μM; other: 1 μM
T3 sequence (P37231 1-505): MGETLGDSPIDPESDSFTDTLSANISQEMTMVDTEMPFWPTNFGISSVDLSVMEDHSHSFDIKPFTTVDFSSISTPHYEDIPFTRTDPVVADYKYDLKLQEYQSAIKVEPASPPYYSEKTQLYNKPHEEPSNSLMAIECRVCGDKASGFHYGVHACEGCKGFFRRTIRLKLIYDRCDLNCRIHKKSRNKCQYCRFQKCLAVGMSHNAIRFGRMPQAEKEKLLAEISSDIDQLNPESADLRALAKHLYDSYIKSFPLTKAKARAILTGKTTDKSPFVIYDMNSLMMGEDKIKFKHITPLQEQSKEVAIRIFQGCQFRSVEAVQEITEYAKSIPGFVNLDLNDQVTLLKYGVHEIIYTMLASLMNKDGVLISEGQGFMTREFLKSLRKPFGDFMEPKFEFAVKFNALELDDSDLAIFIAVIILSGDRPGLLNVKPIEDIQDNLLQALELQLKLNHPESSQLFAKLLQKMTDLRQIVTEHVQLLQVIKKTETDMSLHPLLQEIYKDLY
Experimental: (§1) Cell-Based Transactivation Assay:
(§2) PPRE is a DNA that contains a binding site for PPARG; thus PPRE is a PPAR response element, used herein as a promoter reporter. The binding site is a DR1 response element with the sequence AGGTCA repeated 3 times in tandem and then fused to a construct for luciferase.
(§3) Thus, PPRE is the basis of the cell based transactivation assay described below. The plasmid DNA is co-transfected along with a plasmid for PPARG into COS-1 cells. After an overnight incubation, cells are treated with DMSO or compounds.
(§4) Confluent COS-1 cells were transfected with 4.5 μg murine PPARg2-pSV Sport. or full-length human PPARg-pSport6, 4.5 μg 3×PPRE-luciferase reporter and 27 μL X-treme Gene 9 transfection reagent in serum-free opti-mem media (Gibco), followed by overnight incubation at 37° C., 5% CO2. Transfected cells were plated in white Perkin Elmer 384-well plates and incubated 4 hours. […] After 18 hour incubation, treated cells were developed with Brite Lite Plus (Perkin Elmer) and read in 384-well Luminescence Perkin Elmer En Vision Multilabel plate reader. Graphs were plotted in triplicate in GraphPad Prism Software as fold change of treated cells over DMSO control cells.

PPARG [3] = assay: as above; parameters: species or system human or mouse; settings: COS-1 cells
Experimental: as §1, §2, §3, §4

Compound | IC50 (GST-PPARG-LBD) | also measured
CC(C)c1cccc([C@H](C)NC(=O)c2ccc3c(c2)ncn3Cc2ccc(-c3ccccc3CO)cc2)c1 [Compound 21, (S)-1-((2′-(hydroxymethyl)biphenyl-4-yl)methyl)-N-(1-(3-isopropylphenyl)ethyl)-1H-benzo[d]imidazole-5-carboxamide] | 6490 nM | –
CC(C)c1cccc([C@H](C)NC(=O)c2ccc3c(c2)ncn3Cc2ccc(-c3ccccc3C(O)C(F)(F)F)cc2)c1 (stereo partly drawn) [Compound 26, N—((S)-1-(3-isopropylphenyl)ethyl)-1-((2′-(2,2,2-trifluoro-1-hydroxyethyl)biphenyl-4-yl)methyl)-1H-benzo[d]imidazole-5-carboxamide] | 15700 nM | –
CC(C)CCC(C)NC(=O)c1ccc2c(c1)ncn2Cc1ccc(-c2ccccc2C(=O)O)cc1 (centres unmarked) [Compound 13, 4′-((5-(5-methylhexan-2-ylcarbamoyl)-1H-benzo[d]imidazol-1-yl)methyl)biphenyl-2-carboxylic acid] | 26.7 nM | activation at 1 µM (PPARG [1]): 22.5%; activation at 10 µM (PPARG [1]): 60.5%
CC(C)CC(C)NC(=O)c1ccc2ncn(Cc3ccc(-c4ccccc4C(=O)O)cc3)c2c1 (centres unmarked) [Compound 19, 4′-((6-(4-methylpentan-2-ylcarbamoyl)-1H-benzo[d]imidazol-1-yl)methyl)biphenyl-2-carboxylic acid] | 9.02 nM | –
CC(C)CCNC(=O)c1ccc2c(c1)ncn2Cc1ccc(-c2ccccc2C(=O)O)cc1 [Compound 18, 4′-((5-(isopentylcarbamoyl)-1H-benzo[d]imidazol-1-yl)methyl)-[1,1′-biphenyl]-2-carboxylic acid] | 2430 nM | –
COC(=O)c1ccccc1-c1ccc(Cn2cnc3cc(C(=O)N[C@@H](C)c4cccc(C(C)C)c4)ccc32)cn1 [Compound 28, (S)-methyl 2-(5-((5-((1-(3-isopropylphenyl)ethyl)carbamoyl)-1H-benzo[d]imidazol-1-yl)methyl)pyridin-2-yl)benzoate] | 9070 nM | –
CC(C)c1cccc([C@H](C)NC(=O)c2ccc3c(c2)ncn3Cc2ccc(-c3ccccc3C(=O)O)cc2)c1 [Compound 22, (S)-4′-((5-(1-(3-isopropylphenyl)ethylcarbamoyl)-1H-benzo[d]imidazol-1-yl)methyl)biphenyl-2-carboxylic acid] | 1830 nM | –
CC(C)c1cccc([C@H](C)NC(=O)c2ccc3c(c2)ncn3Cc2ccc(-c3ccccc3C(=O)O)cc2)c1 [Compound 23] | 683 nM | PPRE % act 1 μM (PPARG [2]; 1 μM): −10.26%; EC50 (PPARG [2]; Table 3): 1.61 nM; activation at 1 µM (PPARG [1]): 12.9%
MRL24 [reference compound] | – | transactivation of the reporter, of rosiglitazone response (PPARG [3]; relative to rosiglitazone): about 25%
CCOCCNC(=O)c1ccc2c(c1)ncn2Cc1ccc(-c2ccccc2C(=O)O)cc1 [Compound 16, 4′-((5-(2-ethoxyethylcarbamoyl)-1H-benzo[d]imidazol-1-yl)methyl)biphenyl-2-carboxylic acid] | 9790 nM | –
CC(C)CC(C)NC(=O)c1ccc2c(c1)ncn2Cc1ccc(-c2ccccc2C(=O)O)cc1 (centres unmarked) [Compound 14, 4′((5-((4-methylpentan-2-yl)carbamoyl)-1H-benzo[d]imidazol-1-yl)methyl)-[1,1′-biphenyl]-2-carboxylic acid] | 102 nM | activation at 1 µM (PPARG [1]): 7.71%; activation at 10 µM (PPARG [1]): 32.2%
CC(C)c1cccc([C@H](C)NC(=O)c2ccc3c(c2)ncn3Cc2ccc(-c3ccccc3C(=O)O)nc2)c1 [Compound 27, (S)-2-(5-((5-((1-(3-isopropylphenyl)ethyl)carbamoyl)-1H-benzo[d]imidazol-1-yl)methyl)pyridin-2-yl)benzoic acid] | 8740 nM | –
Cc1nc2cc(C(=O)N[C@@H](C)c3cccc(C(C)C)c3)ccc2n1Cc1ccc(-c2ccccc2C(O)C(F)(F)F)cc1 (stereo partly drawn) [Compound 25, N—((S)-1-(3-isopropylphenyl)ethyl)-2-methyl-1-((2′-(2,2,2-trifluoro-1-hydroxyethyl)biphenyl-4-yl)methyl)-1H-benzo[d]imidazole-5-carboxamide] | 5470 nM | –
CN(CCOc1ccc(CC2SC(=O)NC2=O)cc1)c1ccccn1 (centres unmarked) [rosiglitazone, reference compound] | – | activation of the PPRE reporter (PPARG [3]): about 5 fold
COCCCNC(=O)c1ccc2c(c1)ncn2Cc1ccc(-c2ccccc2C(=O)O)cc1 [Compound 15, 4′-((5-(3-methoxypropylcarbamoyl)-1H-benzo[d]imidazol-1-yl)methyl)biphenyl-2-carboxylic acid] | 15000 nM | –
Cc1nc2cc(C(=O)N[C@@H](C)c3cccc(C(C)C)c3)ccc2n1Cc1ccc(-c2cccnc2C(=O)O)cc1 [Compound 29, (S)-3-(4-((5-(1-(3-isopropylphenyl)ethylcarbamoyl)-2-methyl-1H-benzo[d]imidazol-1-yl)methyl)phenyl)picolinic acid] | 4800 nM | –
CC(C)CCC(C)NC(=O)c1ccc2ncn(Cc3ccc(-c4ccccc4C(=O)O)cc3)c2c1 (centres unmarked) [Compound 20] | 2550 nM | –
O=C(NCC1CC1)c1ccc2c(c1)ncn2Cc1ccc(-c2ccccc2C(=O)O)cc1 [Compound 17, 4′-((5 ((cyclopropylmethyl)carbamoyl)-1H-benzo[d]imidazol-1-yl)methyl)-[1,1′-biphenyl]-2-carboxylic acid] | 22100 nM | –
CC(C)c1cccc([C@H](C)NC(=O)c2ccc3c(c2)ncn3Cc2ccc(-c3cccnc3C(=O)O)cc2)c1 [Compound 24, (S)-3-(4-((5-(1-(3-isopropylphenyl)ethylcarbamoyl)-1H-benzo[d]imidazol-1-yl)methyl)phenyl)picolinic acid] | 2130 nM | –
